Literature values as cited in patent publication US9650678B2, “Methods for identifying an increased risk of anthracycline-related cardiotoxicity” (CITY OF HOPE, priority 2012, dated 2017).

Tests used:
[1] = factor that reflects the drug's cardiotoxic potential
CBR1 = molecular target: T1, CBR1 (Homo sapiens, UniProt P16152)
T1 sequence (P16152 1-277): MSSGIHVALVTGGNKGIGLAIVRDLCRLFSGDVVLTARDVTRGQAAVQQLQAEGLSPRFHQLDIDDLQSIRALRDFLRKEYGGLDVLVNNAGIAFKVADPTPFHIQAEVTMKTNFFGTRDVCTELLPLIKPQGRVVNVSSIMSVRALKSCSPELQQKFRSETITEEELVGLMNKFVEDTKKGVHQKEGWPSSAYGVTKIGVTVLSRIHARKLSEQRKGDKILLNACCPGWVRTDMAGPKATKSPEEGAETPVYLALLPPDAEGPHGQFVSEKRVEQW

patients = settings: package insert, doxorubicin hydrochloride injection (Teva)

| rate of doxorubicinol synthesis, fold higher (CBR1) | synthesis of doxorubicinol, times faster (CBR3) | SMILES | Conversion factor to Doxorubicin Isotoxic Dose [1] | total cumulative dose in excess of which risk of potentially fatal congestive heart failure increases rapidly (patients) |
| --- | --- | --- | --- | --- |
|  |  | COc1cccc2c1C(=O)c1c(O)c3c(c(O)c1C2=O)C[C@@](O)(C(=O)CO)C[C@@H]3O[C@H]1C[C@H](N)[C@@H](O)[C@H](C)O1 [Epirubicin] | 0.67 (⅔) |  |
| 1.5 fold | 2.6 times | COc1cccc2c1C(=O)c1c(O)c3c(c(O)c1C2=O)C[C@@](O)([C@@H](O)CO)C[C@@H]3O[C@H]1C[C@H](N)[C@H](O)[C@H](C)O1 [doxorubicinol] |  |  |
|  |  | CC(=O)[C@]1(O)Cc2c(O)c3c(c(O)c2[C@@H](O[C@H]2C[C@H](N)[C@H](O)[C@H](C)O2)C1)C(=O)c1ccccc1C3=O [Idarubicin] | 5 |  |
|  |  | COc1cccc2c1C(=O)c1c(O)c3c(c(O)c1C2=O)C[C@@](O)(C(=O)CO)C[C@@H]3O[C@H]1C[C@H](N)[C@H](O)[C@H](C)O1 [Doxorubicin] | 1 | greater than 400 mg/m^2 |
|  |  | COc1cccc2c1C(=O)c1c(O)c3c(c(O)c1C2=O)C[C@@](O)(C(C)=O)C[C@@H]3O[C@H]1C[C@H](N)[C@H](O)[C@H](C)O1 [Daunomycin] | 0.833 (⅚) |  |
